Assay results taken from ChEMBL document CHEMBL1201862, “PubChem BioAssay data set” (2004).
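Values below derive from 48-hour exposures of cells grown in 96-well plates, with endpoints linearly interpolated between the two concentrations bracketing the appropriate inhibition level. GI50 = concentration required for 50% inhibition of growth.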 Calls of active or inactive are those of the source. Rule as the data show it: active = GI50 up to about 1.1 µM and inactive = higher.

Experiments:
Test in all cases: NCI tumour cell line growth inhibition, 48 h
[1] = test system: 786-0
[2] = test system: A498
[3] = test system: BT-549
[4] = test system: COLO 205
[5] = test system: HCT-116
[6] = test system: M14
[7] = test system: MCF7
[8] = test system: MOLT-4
[9] = test system: Malme-3M
[10] = test system: NCI-H522
[11] = test system: OVCAR-8
[12] = test system: RXF 393
[13] = test system: SF-295
[14] = test system: SK-OV-3
[15] = test system: SNB-19
[16] = test system: SNB-75
[17] = test system: SW-620
[18] = test system: TK-10
[19] = test system: UACC-62
[20] = test system: HOP-92

For `O=C1Nc2ccc(Br)cc2/C1=N/Nc1ccccc1[N+](=O)[O-]`, the GI50 [1] was 24.6 µM (inactive), the GI50 [2] was 28 µM (inactive) and the GI50 [3] was 30.7 µM (inactive). The GI50 [4] was 12.1 µM (inactive), the GI50 [5] was 32.4 µM (inactive) and the GI50 [6] was 13.9 µM (inactive). The GI50 [7] was 20.8 µM (inactive), the GI50 [8] was 42.9 µM (inactive) and the GI50 [9] was 13.6 µM (inactive). The GI50 [10] was 15.5 µM (inactive), the GI50 [11] was 17.2 µM (inactive) and the GI50 [12] was 32.7 µM (inactive). For the same molecule, the GI50 [13] was 14 µM (inactive), the GI50 [14] was 24 µM (inactive) and the GI50 [15] was 28.6 µM (inactive). For the same molecule, the GI50 [16] was 15.8 µM (inactive), the GI50 [17] was 25 µM (inactive) and the GI50 [18] was 10.3 µM (inactive). For the same molecule, the GI50 [19] was 22.2 µM (inactive).

`C=C1CCCCCCCCCCC1[S+]([O-])c1ccccc1` (stereo not drawn) was tested, and the GI50 [1] was 18.8 µM (inactive), the GI50 [2] was 38.6 µM (inactive) and the GI50 [4] was 25.6 µM (inactive). For the same molecule, the GI50 [5] was 30.5 µM (inactive), the GI50 [20] was > 100 µM (inactive) and the GI50 [6] was 27.7 µM (inactive). The GI50 [7] was 30.1 µM (inactive), the GI50 [8] was 21.8 µM (inactive) and the GI50 [9] was > 100 µM (inactive). For the same molecule, the GI50 [12] was 26.5 µM (inactive), the GI50 [13] was 42 µM (inactive) and the GI50 [14] was 38 µM (inactive). For the same molecule, the GI50 [15] was 56.6 µM (inactive) and the GI50 [19] was 45.4 µM (inactive).

`O=C(NC(Cl)(C(F)(F)F)C(F)(F)F)c1ccc(F)cc1` was tested, and the GI50 [1] was > 100 µM (inactive), the GI50 [2] was > 100 µM (inactive) and the GI50 [4] was > 100 µM (inactive). The GI50 [5] was > 100 µM (inactive), the GI50 [20] was > 100 µM (inactive) and the GI50 [6] was > 100 µM (inactive). The GI50 [7] was > 100 µM (inactive), the GI50 [8] was > 100 µM (inactive) and the GI50 [9] was > 100 µM (inactive). The GI50 [11] was > 100 µM (inactive), the GI50 [12] was > 100 µM (inactive) and the GI50 [13] was > 100 µM (inactive). For the same molecule, the GI50 [14] was > 100 µM (inactive), the GI50 [15] was > 100 µM (inactive) and the GI50 [16] was 0.789 µM (active). For the same molecule, the GI50 [17] was > 100 µM (inactive) and the GI50 [18] was > 100 µM (inactive).

For `N#C[C@H](C(=O)c1ccccc1F)c1nc2ccccc2s1`, the GI50 [1] was 31.2 µM (inactive), the GI50 [2] was 33 µM (inactive) and the GI50 [3] was 46.6 µM (inactive). The GI50 [4] was 23.7 µM (inactive), the GI50 [5] was 23.5 µM (inactive) and the GI50 [20] was 48.1 µM (inactive). The GI50 [6] was 21.8 µM (inactive), the GI50 [8] was 26.5 µM (inactive) and the GI50 [9] was 10.4 µM (inactive). The GI50 [10] was 15.5 µM (inactive), the GI50 [11] was 25.1 µM (inactive) and the GI50 [12] was 27.7 µM (inactive). For the same molecule, the GI50 [13] was 16.1 µM (inactive), the GI50 [14] was 21.1 µM (inactive) and the GI50 [15] was 27.5 µM (inactive). The GI50 [16] was 14.8 µM (inactive), the GI50 [17] was 32.3 µM (inactive) and the GI50 [18] was > 100 µM (inactive). The GI50 [19] was 50.8 µM (inactive).

`CCOC(=O)C(C)(C(=O)OCC)/C(Cl)=C\Cl` was tested, and the GI50 [1] was > 100 µM (inactive), the GI50 [4] was > 100 µM (inactive) and the GI50 [5] was > 100 µM (inactive). For the same molecule, the GI50 [20] was > 100 µM (inactive), the GI50 [6] was > 100 µM (inactive) and the GI50 [7] was 84.7 µM (inactive). The GI50 [8] was > 100 µM (inactive), the GI50 [9] was > 100 µM (inactive) and the GI50 [10] was > 100 µM (inactive). The GI50 [11] was > 100 µM (inactive), the GI50 [12] was > 100 µM (inactive) and the GI50 [13] was > 100 µM (inactive). The GI50 [14] was > 100 µM (inactive), the GI50 [15] was > 100 µM (inactive) and the GI50 [16] was 66.1 µM (inactive). The GI50 [17] was > 100 µM (inactive), the GI50 [18] was > 100 µM (inactive) and the GI50 [19] was > 100 µM (inactive).

For `CN/C(=N\N)NS(=O)(=O)c1cc(C)c(Cl)cc1S`, the GI50 [1] was 27.3 µM (inactive), the GI50 [3] was 38.5 µM (inactive) and the GI50 [4] was > 100 µM (inactive). For the same molecule, the GI50 [5] was 66.5 µM (inactive), the GI50 [20] was 75.2 µM (inactive) and the GI50 [6] was 54.5 µM (inactive). For the same molecule, the GI50 [7] was 62.4 µM (inactive), the GI50 [8] was > 10 µM (inactive) and the GI50 [9] was 46.8 µM (inactive). For the same molecule, the GI50 [10] was 25.2 µM (inactive), the GI50 [11] was 96.2 µM (inactive) and the GI50 [12] was 33.4 µM (inactive). The GI50 [14] was > 100 µM (inactive), the GI50 [15] was > 100 µM (inactive) and the GI50 [16] was > 100 µM (inactive). For the same molecule, the GI50 [17] was 48.5 µM (inactive), the GI50 [18] was 77.4 µM (inactive) and the GI50 [19] was 53.7 µM (inactive).

For `COc1ccc(NC(=O)C2=C(SC)C(=O)N=C2N)cc1`, the GI50 [1] was > 100 µM (inactive), the GI50 [2] was > 100 µM (inactive) and the GI50 [3] was > 100 µM (inactive). The GI50 [4] was > 100 µM (inactive), the GI50 [5] was > 100 µM (inactive) and the GI50 [20] was > 100 µM (inactive). For the same molecule, the GI50 [8] was > 100 µM (inactive), the GI50 [11] was > 100 µM (inactive) and the GI50 [12] was > 100 µM (inactive). The GI50 [13] was > 100 µM (inactive), the GI50 [14] was > 100 µM (inactive) and the GI50 [15] was > 100 µM (inactive). The GI50 [16] was > 100 µM (inactive), the GI50 [17] was > 100 µM (inactive) and the GI50 [18] was > 100 µM (inactive). For the same molecule, the GI50 [19] was > 100 µM (inactive).

`Cc1cc(S(=O)(=O)NC2=Nc3cccc4cccc(c34)N2)c(S)cc1Cl` was tested, and the GI50 [1] was 84.5 µM (inactive), the GI50 [3] was > 100 µM (inactive) and the GI50 [4] was 84.7 µM (inactive). The GI50 [5] was 18.1 µM (inactive), the GI50 [20] was > 100 µM (inactive) and the GI50 [6] was 65.2 µM (inactive). The GI50 [7] was > 100 µM (inactive), the GI50 [8] was 41.6 µM (inactive) and the GI50 [9] was > 100 µM (inactive). The GI50 [10] was > 100 µM (inactive), the GI50 [11] was > 100 µM (inactive) and the GI50 [12] was 97.5 µM (inactive). The GI50 [13] was 39.5 µM (inactive), the GI50 [15] was 79.1 µM (inactive) and the GI50 [16] was > 100 µM (inactive). For the same molecule, the GI50 [17] was 78.7 µM (inactive) and the GI50 [19] was > 100 µM (inactive).
